Values joined by “and” are separate entries in the source; they are usually repeats but may differ in a detail not shown here. Equal values may be shown once.
What was measured:
[1] = test system: Monopraphella nivalis (syn. Microdochium nivale, Fusarium nivale); assay: Fungicidal action against Monopraphella nivalis (snow mould, foot rot of cereals), microtiter growth inhibition; type: cell-based; conditions: compound alone
Description: Example B9: Fungicidal Action Against Monopraphella nivalis (Syn. Microdochium nivale, Fusarium nivale), Snow Mould, Foot Rot of Cereals
Conidia of the fungus from cryogenic storage are directly mixed into nutrient broth (PDB potato dextrose broth). After placing a (DMSO) solution of the test compounds into a microtiter plate (96-well format) the nutrient broth containing the fungal spores is added. The test plates are incubated at 24 C and the inhibition of growth is evaluated after 4 days.

[2] = test system: Pseudocercosporella herpotrichoides (syn. Tapesia yallundae); assay: Fungicidal action against Pseudocercosporella herpotrichoides (eye spot of cereals), microtiter growth inhibition; type: cell-based; conditions: alone
Description: Example B5: Funicidal Action Against Pseudocercosporella herpotrichoides (Syn. Tapesia yallundae), Eye Spot of Cereals
(§1) Conidia of the fungus from cryogenic storage are directly mixed into nutrient broth (PDB potato dextrose broth). After placing a (DMSO) solution of the test compounds into a microtiter plate (96-well format) the nutrient broth containing the fungal spores is added. The test plates are incubated at 24° C. and the inhibition of growth is evaluated after 4 days. The expected fungicidal action is calculated according to the Colby method.

Botrytis cinerea = assay: Fungicidal action against Botrytis cinerea (gray mould), microtiter growth inhibition; type: cell-based; conditions: alone
Description: Example B2: Fungicidal Action Against Botrytis cinerea (Gray Mould)
as §1

Alternaria solani = assay: Fungicidal action against Alternaria solani (early blight tomato/potato), microtiter growth inhibition; type: cell-based; conditions: alone
Description: Example B4: Fungicidal Action Against Alternaria solani (Early Blight Tomato/Potato)
Conidia of the fungus from cryogenic storage are directly mixed into nutrient broth (PDB potato dextrose broth). After placing a (DMSO) solution of the test compounds into a microtiter plate (96-well format) the nutrient broth containing the fungal spores is added. The test plates are incubated at 24° C. and the inhibition of growth is evaluated after 3 days. The expected fungicidal action is calculated according to the Colby method.

Septoria tritici = assay: Fungicidal action against Septoria tritici (leaf blotch), microtiter growth inhibition; type: cell-based; conditions: alone
Description: Example B3: Fungicidal Action Against Septoria tritici (Leaf Blotch)
as §1

Pyrenophora teres = assay: Fungicidal action against Pyrenophora teres (net blotch), microtiter growth inhibition; type: cell-based
Description: Example B6: Fungicidal Action Against Pyrenophora teres (Net Blotch)
as §1

[3] = test system: Cercospora arachidicola (syn. Mycosphaerella arachidis); assay: Fungicidal action against Cercospora arachidicola (brown leaf spot of groundnut), microtiter growth inhibition; type: cell-based; conditions: compound alone
Description: Example B8: Fungicidal Action Against Cercospora arachidicola (Syn. Mycosphaerella arachidis), Brown Leaf Spot of Groundnut (Peanut)
Conidia of the fungus from cryogenic storage are directly mixed into nutrient broth (PDB potato dextrose broth). After placing a (DMSO) solution of the test compounds into a microtiter plate (96-well format) the nutrient broth containing the fungal spores is added. The test plates are incubated at 24 C and the inhibition of growth is evaluated after 7 days.

[4] = test system: Colletotrichum lagenarium (syn. Glomerella lagenarium); assay: Fungicidal action against Colletotrichum lagenarium (anthracnose of cucurbits), microtiter growth inhibition; type: cell-based; conditions: compound alone
Description: Example B10: Fungicidal Action Against Colletotrichum lagenarium (Syn. Glomerella lagenarium), Anthracnose of Cucurbits Conidia of the fungus from cryogenic storage are directly mixed into nutrient broth (PDB potato dextrose broth). After placing a (DMSO) solution of the test compounds into a microtiter plate (96-well format) the nutrient broth containing the fungal spores is added. The test plates are incubated at 24 C and the inhibition of growth is evaluated after 3 days.

Phakopsora pachyrhizi = assay: Action against Asian soybean rust, leaf disc test; type: in vivo; conditions: 14 days after inoculation
Description: Example B-1: Action Against Asian Soybean Rust (Phakopsora pachyrhizi)—Leaf Disc Test
Whole soybean plants (variety brand Williams82) are treated with the recited active ingredients 4 weeks after planting. 1 day after spraying leaf disks are cut from the first trifoliate leaf. Five repetitions at each rate are conducted. The leaf disks are inoculated with Phakopsora pachyrhizi (Asian soybean rust) one day after treatment. Evaluation of the leaf disks is conducted fourteen days after inoculation and the mean percent infestation of the five repetitions is calculated. Standard EC100 formulations are used. The rates of the active ingredients used are given in Table B1 as g active ingredient (a.i.)/ha.

Gaeumannomyces graminis = assay: Fungicidal action against Gaeumannomyces graminis (take-all of cereals), microtiter growth inhibition; type: cell-based; conditions: compound alone
Description: Example B7: Fungicidal Action Against Gaeumannomyces graminis (Take-all of Cereals)
Mycelial fragments of the fungus from cryogenic storage are directly mixed into nutrient broth (PDB potato dextrose broth). After placing a (DMSO) solution of the test compounds into a microtiter plate (96-well format) the nutrient broth containing the fungal spores is added. The test plates are incubated at 24 C and the inhibition of growth is evaluated after 4 days.

Structure (SMILES): Cn1cc(C(=O)Nc2cccc3c2C2CCC3C2=C(Cl)Cl)c(C(F)(F)F)n1 (stereo not shown)
- melting point: 183 to 188 °C and 179 to 181 °C

Structure (SMILES): Cn1cc(C(=O)Nc2cccc3c2C2CCC3C2=C(F)F)c(C(F)F)n1 (stereo not shown) [Compound A-1.2, 3-difluoromethyl-1-methyl-1H-pyrazole-4-carboxylic acid (9-difluoromethylidene-benzonorbornene-5-yl)amide]
- % activity ([1]; 1.0000 ppm): 50%
- % activity ([1]; 2.0000 ppm): 70%
- % activity ([2]; 0.0039 ppm): 0%
- % activity ([2]; 0.0078 ppm): 0%
- % activity ([2]; 0.0156 ppm): 0%
- % activity ([2]; 0.0313 ppm): 0%
- % activity ([2]; 0.0625 ppm): 0%
- % activity ([2]; 0.5000 ppm): 70%
- % activity (Botrytis cinerea; 0.0313 ppm): 0%
- % activity (Botrytis cinerea; 0.1250 ppm): 20%
- % activity (Botrytis cinerea; 0.2500 ppm): 20%
- % activity (Botrytis cinerea; 0.5000 ppm): 20%
- % activity (Botrytis cinerea; 1.0000 ppm): 50%
- % activity (Botrytis cinerea; 2.0000 ppm): 70%
- % activity (Alternaria solani; 0.0313 ppm): 0%
- % activity (Alternaria solani; 0.1250 ppm): 20%
- % activity (Alternaria solani; 0.2500 ppm): 50%
- % activity (Alternaria solani; 0.5000 ppm): 50%
- % activity (Septoria tritici; 0.0078 ppm): 0%
- % activity (Septoria tritici; 0.0156 ppm): 0%
- % activity (Septoria tritici; 0.1250 ppm): 0%
- % activity (Septoria tritici; 0.2500 ppm): 20%
- % activity (Septoria tritici; 0.5000 ppm): 50%
- % activity (Septoria tritici; 1.0000 ppm): 70%
- % activity (Pyrenophora teres; 0.0078 ppm, alone): 0%
- % activity (Pyrenophora teres; 0.0156 ppm, alone): 0%
- % activity (Pyrenophora teres; 0.0313 ppm, alone): 0%
- % activity (Pyrenophora teres; 0.1250 ppm, alone): 20%
- % activity (Pyrenophora teres; 0.2500 ppm, alone): 20%
- % activity (Pyrenophora teres; compound alone, 0.0313 ppm): 0%
- % activity (Pyrenophora teres; compound alone, 0.1250 ppm): 20%
- % activity (Pyrenophora teres; compound alone, 0.2500 ppm): 20%
- % activity (Pyrenophora teres; compound alone, 0.5000 ppm): 50%
- % activity (Pyrenophora teres; compound alone, 1.0000 ppm): 50%
- % activity (Pyrenophora teres; compound alone, 2.0000 ppm): 70%
- % activity ([3]; 0.0156 ppm): 0%
- % activity ([3]; 0.0313 ppm): 0%
- % activity ([3]; 0.0625 ppm): 0%
- % activity ([3]; 0.1250 ppm): 20%
- % activity ([3]; 0.2500 ppm): 70% and 50%
- % activity ([4]; 0.0313 ppm): 0%
- % activity ([4]; 0.0625 ppm): 0%
- % activity ([4]; 0.1250 ppm): 0%
- % activity ([4]; 0.5000 ppm): 20%
- % activity ([4]; 1.0000 ppm): 50%
- % Control of Phakopsora pachyrhizi (Phakopsora pachyrhizi; 31.25 g a.i./ha): 39%
- % Control of Phakopsora pachyrhizi (Phakopsora pachyrhizi; 62.5 g a.i./ha): 54%
- % Control of Phakopsora pachyrhizi (Phakopsora pachyrhizi; 125 g a.i./ha): 44%
- % Control of Phakopsora pachyrhizi (Phakopsora pachyrhizi; 250 g a.i./ha): 94%
- % activity (Gaeumannomyces graminis; 0.0156 ppm): 0%
- % activity (Gaeumannomyces graminis; 0.0313 ppm): 0%
- % activity (Gaeumannomyces graminis; 0.0625 ppm): 0%
- % activity (Gaeumannomyces graminis; 0.1250 ppm): 0%
- % activity (Gaeumannomyces graminis; 0.5000 ppm): 70% and 90%

Structure (SMILES): CC(Cc1ccc(C(C)(C)C)cc1)CN1C[C@@H](C)O[C@@H](C)C1 (stereo partly shown) [Fenpropimorph]
- inhibition at 0.0625 ppm ([1]; Microdochium nivale, 0.0625 ppm): 0%
- inhibition at 0.125 ppm ([1]; Microdochium nivale, 0.1250 ppm): 0%
- inhibition at 0.25 ppm ([1]; Microdochium nivale, 0.2500 ppm): 0%
- inhibition at 0.5 ppm ([1]; Microdochium nivale, 0.5000 ppm): 0%
- inhibition at 1 ppm ([1]; Microdochium nivale, 1.0000 ppm): 0%
- inhibition at 2 ppm ([1]; Microdochium nivale, 2.0000 ppm): 0%
- inhibition at 0.0625 ppm ([3]; Mycosphaerella arachidis, 0.0625 ppm): 0%
- inhibition at 0.125 ppm ([3]; Mycosphaerella arachidis, 0.1250 ppm): 0%
- inhibition at 0.25 ppm ([3]; Mycosphaerella arachidis, 0.2500 ppm): 20%
- inhibition at 0.5 ppm ([3]; Mycosphaerella arachidis, 0.5000 ppm): 50%
- inhibition at 0.25 ppm ([4]; Colletotrichum orbiculare, 0.2500 ppm): 0%
- inhibition at 0.5 ppm ([4]; Colletotrichum orbiculare, 0.5000 ppm): 0%
- inhibition at 1 ppm ([4]; Colletotrichum orbiculare, 1.0000 ppm): 20%
- inhibition at 2 ppm ([4]; Colletotrichum orbiculare, 2.0000 ppm): 20%
- inhibition at 0.25 ppm (Gaeumannomyces graminis; Gaeumannomyces graminis, 0.2500 ppm): 0%
- inhibition at 0.5 ppm (Gaeumannomyces graminis; Gaeumannomyces graminis, 0.5000 ppm): 0%
- inhibition at 1 ppm (Gaeumannomyces graminis; Gaeumannomyces graminis, 1.0000 ppm): 0%
- inhibition at 2 ppm (Gaeumannomyces graminis; Gaeumannomyces graminis, 2.0000 ppm): 20%
